Literature values in patent publication EP4434551A1, “METHOD FOR DIAGNOSING AND TREATING NIS-EXPRESSING CARCINOMAS AND METASTASES” (Nuske, Andreas, priority 2023, dated 2024).

Tested on: NIS gene
Details: breast cancer cell line MCF-7

In the case of `CC1=C(/C=C/C(C)=C/C=C/C(C)=C/C(=O)O)C(C)(C)CCC1` [tRA, trans-retinoic acid], the “induction of the NIS gene” value is given as “induction of the NIS gene”.
